Active and inactive are the calls of the source. The rule behind the calls is not given here.

For test [1], the target named is T1, von Hippel-Lindau disease tumor suppressor/Son of sevenless homolog 1 (Homo sapiens, UniProt Q07889+P40337). Put plainly: Protac activity at VHL/SOS1 in human NCI-H358 cells assessed as SOS1 protein degradation at 1 uM incubated for 24 hr by Western blot analysis relative to control. Type of test: cell-based.
Target sequence in this assay (P40337 whole entry, looked up): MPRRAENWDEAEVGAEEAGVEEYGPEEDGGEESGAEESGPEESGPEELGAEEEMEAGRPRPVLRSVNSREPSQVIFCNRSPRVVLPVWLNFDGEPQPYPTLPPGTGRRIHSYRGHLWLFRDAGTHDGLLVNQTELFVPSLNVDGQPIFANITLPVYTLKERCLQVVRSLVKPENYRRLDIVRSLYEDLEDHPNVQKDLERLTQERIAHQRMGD
Target sequence in this assay (Q07889 whole entry, looked up): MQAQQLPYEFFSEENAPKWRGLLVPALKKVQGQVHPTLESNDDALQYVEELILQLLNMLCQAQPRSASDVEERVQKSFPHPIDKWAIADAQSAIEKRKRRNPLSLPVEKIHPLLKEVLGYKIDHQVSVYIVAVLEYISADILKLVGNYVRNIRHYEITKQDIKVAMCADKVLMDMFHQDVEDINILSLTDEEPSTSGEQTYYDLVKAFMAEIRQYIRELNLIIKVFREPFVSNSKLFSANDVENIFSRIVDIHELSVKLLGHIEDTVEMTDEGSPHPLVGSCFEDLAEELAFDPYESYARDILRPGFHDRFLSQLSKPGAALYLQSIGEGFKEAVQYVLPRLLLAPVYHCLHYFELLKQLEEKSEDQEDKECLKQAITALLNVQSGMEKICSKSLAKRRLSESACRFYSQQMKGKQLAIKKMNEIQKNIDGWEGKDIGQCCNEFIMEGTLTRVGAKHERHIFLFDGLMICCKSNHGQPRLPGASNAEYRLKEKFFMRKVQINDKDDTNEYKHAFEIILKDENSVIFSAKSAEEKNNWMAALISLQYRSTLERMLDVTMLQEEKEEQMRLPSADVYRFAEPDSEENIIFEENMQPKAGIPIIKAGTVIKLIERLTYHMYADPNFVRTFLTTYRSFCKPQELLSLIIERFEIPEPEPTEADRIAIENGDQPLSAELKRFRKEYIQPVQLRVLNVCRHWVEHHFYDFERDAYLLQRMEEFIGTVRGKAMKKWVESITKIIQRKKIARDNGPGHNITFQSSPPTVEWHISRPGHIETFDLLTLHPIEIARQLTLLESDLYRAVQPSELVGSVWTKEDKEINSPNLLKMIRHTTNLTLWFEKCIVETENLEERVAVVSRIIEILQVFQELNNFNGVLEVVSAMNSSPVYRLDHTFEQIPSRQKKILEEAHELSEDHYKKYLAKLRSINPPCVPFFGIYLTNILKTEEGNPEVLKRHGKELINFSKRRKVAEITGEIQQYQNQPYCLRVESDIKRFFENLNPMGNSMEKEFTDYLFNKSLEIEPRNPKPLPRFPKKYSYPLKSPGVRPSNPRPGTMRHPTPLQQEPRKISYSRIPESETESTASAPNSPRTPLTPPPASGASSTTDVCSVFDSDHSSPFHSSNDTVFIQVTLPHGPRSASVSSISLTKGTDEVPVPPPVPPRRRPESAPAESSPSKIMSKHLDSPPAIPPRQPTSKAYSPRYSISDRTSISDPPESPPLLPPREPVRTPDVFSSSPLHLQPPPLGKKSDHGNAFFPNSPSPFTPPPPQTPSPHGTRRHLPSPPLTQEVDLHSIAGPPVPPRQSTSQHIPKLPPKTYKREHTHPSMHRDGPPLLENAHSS
For test [2], the target named is T1, von Hippel-Lindau disease tumor suppressor/Son of sevenless homolog 1. Put plainly: Protac activity at VHL/SOS1 in human NCI-H358 cells assessed as SOS1 protein degradation at 0.1 uM incubated for 24 hr by Western blot analysis relative to control. Type of test: cell-based.
Target sequence in this assay (P40337 whole entry, looked up): as the sequence (P40337 whole entry, looked up) above
Target sequence in this assay (Q07889 whole entry, looked up): as the sequence (Q07889 whole entry, looked up) above
Test [3] has as its system NCI-H358. Put plainly: Effect of compound on human NCI-H358 cells assessed as increase in phophorylated ERK level incubated for 24 hr by Western blot analysis. Format: functional, cell-based.
Test [4] concerns the target T1, von Hippel-Lindau disease tumor suppressor/Son of sevenless homolog 1. Put plainly: Protac activity at VHL/SOS1 in human NCI-H358 cells assessed as SOS1 protein degradation incubated for 24 hr by Western blot analysis. Type of test: cell-based.
Target sequence in this assay (Q07889 whole entry): as the sequence (Q07889 whole entry, looked up) above
Target sequence in this assay (P40337 whole entry): as the sequence (P40337 whole entry, looked up) above

As to `Cc1cc(Cn2c(N3CC4(CNC4)C3)nc3c(N4CCN(CCCCCCCCCCC(=O)N[C@H](C(=O)N5C[C@H](O)C[C@H]5C(=O)N[C@@H](C)c5ccc(-c6scnc6C)cc5)C(C)(C)C)CC4)cc(Cl)cc32)cc(C)c1F`, the Activity in test [1] amounted to 63.2%; in test [2] it was 31.7%.

As to `Cc1cc(Cn2c(N3CC4(CNC4)C3)nc3c(N4CCN(CCOCCOCCC(=O)N[C@H](C(=O)N5C[C@H](O)C[C@H]5C(=O)N[C@@H](C)c5ccc(-c6scnc6C)cc5)C(C)(C)C)CC4)cc(Cl)cc32)cc(C)c1F`, the Activity turned out to be 14% in test [1] and 4.4% in test [2].

For `Cc1cc(Cn2c(N3CC4(CNC4)C3)nc3c(N4CCN(C)CC4)cc(Cl)cc32)cc(C)c1F`, the outcome in test [3] was Active.

Turning to `Cc1cc(Cn2c(N3CC4(CNC4)C3)nc3c(N4CCN(CCCC(=O)NCCCC(=O)N[C@H](C(=O)N5C[C@H](O)C[C@H]5C(=O)N[C@@H](C)c5ccc(-c6scnc6C)cc5)C(C)(C)C)CC4)cc(Cl)cc32)cc(C)c1F`, the Activity in test [1] amounted to 12.7%; in test [2] it was 8%.

On to `Cc1cc(Cn2c(N3CC4(CNC4)C3)nc3c(N4CCN(CC5CCN(CC(=O)N[C@H](C(=O)N6C[C@H](O)C[C@H]6C(=O)N[C@@H](C)c6ccc(-c7scnc7C)cc6)C(C)(C)C)CC5)CC4)cc(Cl)cc32)cc(C)c1F`, for which the Activity in test [1] worked out at 43.3%; in test [2], 13%.

Regarding `Cc1cc(Cn2c(N3CC4(CNC4)C3)nc3c(N4CCN(CCC(=O)NCCCC(=O)N[C@H](C(=O)N5C[C@H](O)C[C@H]5C(=O)N[C@@H](C)c5ccc(-c6scnc6C)cc5)C(C)(C)C)CC4)cc(Cl)cc32)cc(C)c1F`, the Activity in test [1] came out at 18.3%; in test [2], 0%.

As for `Cc1cc(Cn2c(N3CC4(CNC4)C3)nc3c(N4CCN(CCCCC(=O)NCCCC(=O)N[C@H](C(=O)N5C[C@H](O)C[C@H]5C(=O)N[C@@H](C)c5ccc(-c6scnc6C)cc5)C(C)(C)C)CC4)cc(Cl)cc32)cc(C)c1F`, the Activity was determined as 0% in test [1] and 3.2% in test [2].

Turning to `Cc1cc(Cn2c(N3CC4(CNC4)C3)nc3c(N4CCN(CCCCCCCCCCCC(=O)N[C@H](C(=O)N5C[C@H](O)C[C@H]5C(=O)N[C@@H](C)c5ccc(-c6scnc6C)cc5)C(C)(C)C)CC4)cc(Cl)cc32)cc(C)c1F`, the Activity in test [1] turned out to be 49%; in test [2], 33%.

For the molecule `Cc1cc(Cn2c(N3CC4(CNC4)C3)nc3c(N4CCN(CCCCCCCCCC(=O)N[C@H](C(=O)N5C[C@H](O)C[C@H]5C(=O)N[C@@H](C)c5ccc(-c6scnc6C)cc5)C(C)(C)C)CC4)cc(Cl)cc32)cc(C)c1F`, the results for the Activity in test [1] and in test [2] were 82% and 38.5%, respectively. Moreover, the DC50 in test [4] is 182 nM.

Regarding `Cc1cc(Cn2c(N3CC4(CNC4)C3)nc3c(N4CCN(CCCCCCCCC(=O)N[C@H](C(=O)N5C[C@@H](O)C[C@H]5C(=O)N[C@@H](C)c5ccc(-c6scnc6C)cc5)C(C)(C)C)CC4)cc(Cl)cc32)cc(C)c1F`, the result in test [3] was Active.

Regarding `Cc1cc(Cn2c(N3CC4(CNC4)C3)nc3c(N4CCN(CCCCCC(=O)N[C@H](C(=O)N5C[C@H](O)C[C@H]5C(=O)N[C@@H](C)c5ccc(-c6scnc6C)cc5)C(C)(C)C)CC4)cc(Cl)cc32)cc(C)c1F`, the Activity in test [1] is 30.4%; in test [2], 5.8%.

Take `Cc1cc(Cn2c(N3CC4(CNC4)C3)nc3c(N4CCN(CC5CCN(CCC(=O)N[C@H](C(=O)N6C[C@H](O)C[C@H]6C(=O)N[C@@H](C)c6ccc(-c7scnc7C)cc6)C(C)(C)C)CC5)CC4)cc(Cl)cc32)cc(C)c1F`: the Activity in test [1] was 9.4%; in test [2], 18.1%.

In the case of `Cc1cc(Cn2c(N3CC4(CNC4)C3)nc3c(N4CCN(CCOCCOCC(=O)N[C@H](C(=O)N5C[C@H](O)C[C@H]5C(=O)N[C@@H](C)c5ccc(-c6scnc6C)cc5)C(C)(C)C)CC4)cc(Cl)cc32)cc(C)c1F`, the Activity in test [1] came to 24.4%; in test [2] it was 23.3%.

For `Cc1cc(Cn2c(N3CC4(CNC4)C3)nc3c(N4CCN(CCCCCCC(=O)N[C@H](C(=O)N5C[C@H](O)C[C@H]5C(=O)N[C@@H](C)c5ccc(-c6scnc6C)cc5)C(C)(C)C)CC4)cc(Cl)cc32)cc(C)c1F`, the results for the Activity in test [1] and in test [2] were 79.9% and 30.7%, respectively. Also, the 50% degradation concentration (DC50) in test [4] stood at 216 nM.

Take `Cc1cc(Cn2c(N3CC4(CNC4)C3)nc3c(N4CCN(CCOCCOCCOCCC(=O)N[C@H](C(=O)N5C[C@H](O)C[C@H]5C(=O)N[C@@H](C)c5ccc(-c6scnc6C)cc5)C(C)(C)C)CC4)cc(Cl)cc32)cc(C)c1F`: the Activity came to 36.6% in test [1] and 15.4% in test [2].

`Cc1cc(Cn2c(N3CC4(CNC4)C3)nc3c(N4CCN(CC5CCN(CCCC(=O)N[C@H](C(=O)N6C[C@H](O)C[C@H]6C(=O)N[C@@H](C)c6ccc(-c7scnc7C)cc6)C(C)(C)C)CC5)CC4)cc(Cl)cc32)cc(C)c1F`: the figures for the Activity in test [1] and in test [2] were 11.2% and 7%, respectively.

As to `Cc1cc(Cn2c(N3CC4(CNC4)C3)nc3c(N4CCN(CCCCCCCC(=O)N[C@H](C(=O)N5C[C@H](O)C[C@H]5C(=O)N[C@@H](C)c5ccc(-c6scnc6C)cc5)C(C)(C)C)CC4)cc(Cl)cc32)cc(C)c1F`, the figures for the Activity in test [1] and in test [2] were 80.9% and 27.6%, respectively. Further, the 50% degradation concentration (DC50) in test [4] was found to be 150 nM.

Values taken from ChEMBL document CHEMBL5154769, “Discovery of the First-in-Class Agonist-Based SOS1 PROTACs Effective in Human Cancer Cells Harboring Various KRAS Mutations” (J Med Chem, 2022).
